In patent US20210161894A1, “Compositions and Methods for Modulating Liver Endothelial Cell Fenestrations” (priority 2017, published 2021):
“Also recorded” adds a separate entry of the source.

What was measured:
[1] = tested on: isolated LSECs (liver sinusoidal endothelial cells); assay: SEM of fenestrations in isolated LSECs from young and old mice after 30 min drug treatment (second Example 7); format: cell-based; details: for Diameter / Frequency / Porosity: 30 min; for effect on porosity and fenestration frequency (summary in words): young and old LSECs
Description: 3-4 and 18-24 month old male C57/B16 mice were obtained from the Animal Resource Centre in Perth, Western Australia. Animals were housed at the ANZAC Research Institute animal house on a 12 hour light/dark cycle and provided with ad libitum access to food and water. Mice were not fasted prior to euthanasia by a single intraperitoneal injection with 100 mg/kg ketamine and 10 mg/kg xylazine in saline. The study was approved by the Animal Welfare Committee of the Sydney Local Health District and was performed in accordance with the Australian Code of Practice for the care and use of animals for scientific research (AWC 2016/009). All information provided accords with the ARRIVE guidelines.
As described previously (Cogger et al. J e52698, 2015 https://dx.doi.org/10.3791/52698), mouse LSEC isolation was performed by perfusion of the liver with collagenase. Non-parenchymal cells were removed by a two-step Percoll gradient and Kupffer cells were removed by selective adherence to plastic. LSECs (seeded at 0.5×10^6 cells/cm2) were cultured (37° C., 5% CO2) in serum free RPMI-1640 for 3.5 hours before use.
Cells were treated with various agents for 30 minutes to determine effects on fenestrations. All agents were dissolved in serum-free RPMI media. All experiments were performed in triplicate for both young and old mice. Actin was disrupted with 0.5 μg/ml cytochalasin D and lipid rafts were disrupted with 3.6 and 1.8 μg/ml 7-keocholesterol; dosages were selected. […] The serotonergic/phospholipase C pathway was promoted with DOI (0.1 μg/ml) and endothelin receptors were inhibited by bosentan (550, 55 and 5.5 ng/ml) Death receptor 4 was promoted with TRAIL (100, 10. 1, 0.1 and 0.01 ng/ml) and NAD+ was promoted with NMN (5000, 50, 10, 1 and 0.1 μg/ml).
SEM was performed as previous described (Corbin et al J Biol Chem 274: 13729-13732, 1999.). LSECs were fixed in 2.5% glutaraldehyde in 0.1M sodium cacodylate buffer, osmicated, dehydrated in graded ethanol and hexamethyl disilazane, mounted on stubs, sputter coated with platinum and examined using a JEOL 6380 Scanning Electron Microscope (JEOL Ltd, Japan). Images at 10,000× magnification were collected by a blinded observer and used to measure fenestration diameter and LSEC porosity using Image J (NIH, MD, USA). […] Fenestrations less than 30 nm and gaps more than 300 nm were excluded from analysis. Porosity was defined as the percentage of the cell membrane covered with fenestrations. Frequency was defined at the number of fenestrations per […].
Individual specifications of analyses are described in figures legends. All data are presented as mean±SD. Experimental design and analysis were performed in accordance with the APS guidelines described in Curran-Everett and Benos DJ. Adv Physiol Educ 31: 295-298, 2007.

LSEC fenestrations = assay: SEM of LSEC fenestrations after drug treatments (Example 2, FIGS. 1-6); format: cell-based, mice; details: for change in fenestration diameter: Bosentan 0.1 μM, Sildenafil 300 ng/ml, TRAIL 1 μg/ml; for sieve plates and fenestration density on SEM images: young and old mice
Excerpt: Young and old C57B16 mice (n=3 young mice, age 3-4 and n=3 old mice, 20-24 months) were maintained under full SPF conditions and with ad libitum feeding. The study had the approval of the Sydney South West Area Health Service Animal Welfare Committee. Mice at 20-24 months are senescent. Animals were sacrificed withCO2 and livers immediately perfusion-fixed via a 23G needle inserted into the portal vein. Liver tissue was fixed with1% glutaraldehyde/4% para-formaldehyde in PBS (0.1M sucrose).
Drug treatments and dosages (shown superimposed on their corresponding image in FIGS. 1, and 2) were performed by incubating liver cells at 37° C., 5% CO2 for 30 mins using RPMI with or without dissolved drug. All images were taken by two blinded researchers using a SEM at 10,000×, scale bars of 1 μm are shown.
Each data point represents the average±SD of 8 images (as shown in FIGS. 1 and 2), 616-3312 fenestration raw data points were collected per treatment.

[2] = tested on: lipid rafts and fenestrations of LSECs; assay: 3D-SIM study of lipid rafts and fenestrations; format: cell-based
Excerpt: Sieve plates containing fenestrations are intercalated between thickened areas of membrane (lipid rafts).

[3] = tested on: actin cytoskeleton of LSECs; assay: dSTORM imaging of the actin cytoskeleton; format: cell-based; details: young mice
Description: dSTORM imaging was performed using an in-house microscope. LSECs were prepared for dSTORM by washing twice with PBS and fixation with 4% paraformaldehyde for 30 mins. Then LSECs were washed twice with PBS, permeabilised with Triton-X for 90 secs, blocked with 5% bovine serum albumin for 1 hour, and stained with Alexa Flour phalloidin 488 (1:40) for 20 min prior to imaging. Cells were washed using PBS with 0.1% Tween and placed in OxEA buffer (30) for dSTORM visualisation and image capture. The dSTORM used 488 and 647 nm excitation from diode-pumped lasers (Coherent Inc, CA, USA). Excitation was delivered via a 1.49NA 60× oil-immersion TIRF objective (Olympus Australia, AUS). Fluorescence was captured on two separate sCMOS cameras (Imaging Development Systems GmbH, Germany). Data was collected for up to 40,000 images at around 75 fps. 5-8 whole cell images were collected by a blinded observer for each treatment dosage and processed using rapidSTORM open source software (Wolter et al. Nat Methods 9: 1040, 2012.). Each image was examined for all sieve plates and actin structures. Densitometry measurements were performed using 5-8 dSTORM images with data analysis performed using Image J software (NIH, MD, USA).

Intracellular cGMP = assay: Cyclic GMP ELISA; format: cell-based, mice; details: p=0.001
Description: Assays for MTT and cGMP were performed as instructed by the kit. Briefly, MTT assays were performed following drug treatments. Cells were washed with PBS and incubated with RPMI media containing […] MTT solution. Cells were incubated at 37° C. for 4 hrs and lysed with […] solubilisation solution, 30 mins colour development followed and measured at 570 nm using a spectrophotometer. cGMP assays were also performed after drug treatments. Cells were washed with PBS and lysed with 0.1M HCl. Following sample collection the sample was acetylated and prepared with kit reagents. Samples were incubated for 18 hrs at 4° C. before examination at 410 nm with a spectrophotometer.

Compound: CCC(C)(C)C(=O)O[C@H]1C[C@@H](C)C=C2C=C[C@H](C)[C@H](CC[C@@H]3C[C@@H](O)CC(=O)O3)[C@H]21 [Simvastatin, simvastatin]
- Change in Diameter, Old ([1]; old mice, 0.1 μg/ml): ↑ (ns)
- Diameter ([1]; old mice, 0.1 μg/ml): 147.47 ± 6.47 nm
- Frequency ([1]; old mice, 0.1 μg/ml): 1.89 ± 0.74 no/area
- Change in Diameter, Old ([1]; old mice, 1 μg/ml): ↑ (ns)
- Diameter ([1]; old mice, 1 μg/ml): 145.96 ± 6.55 nm
- Frequency ([1]; old mice, 1 μg/ml): 1.88 ± 0.86 no/area
- Diameter ([1]; young mice, 0.1 μg/ml): 144.35 ± 18.95 nm
- Frequency ([1]; young mice, 0.1 μg/ml): 2.42 ± 0.55 no/area
- Porosity ([1]; young mice, 0.1 μg/ml): 4.05 ± 0.41%
- Diameter ([1]; young mice, 1 μg/ml): 126.55 ± 9.64 nm
- Frequency ([1]; young mice, 1 μg/ml): 2.83 ± 0.51 no/area
- Porosity ([1]; young mice, 1 μg/ml): 3.99 ± 0.55%
- fenestration diameter (LSEC fenestrations; old mice, both Simvastatin treatments): 152.0±19.2 nm

Compound: VEGF
- effect on fenestrations and lipid rafts [2]: depleted lipid rafts and increased fenestrations

Compound: CCOC(=O)C1=C(COCCN)NC(C)=C(C(=O)OC)C1c1ccccc1Cl (stereo not shown) [Amlodipine, amlodipine]
- Diameter ([1]; old mice, 5 ng/ml): 119.67 ± 22.63 nm
- Frequency ([1]; old mice, 5 ng/ml): 3.56 ± 1.07 no/area
- Porosity ([1]; old mice, 5 ng/ml): 4.44 ± 0.29 %
- Change in Frequency, Old ([1]; old mice, 20 ng/ml): ↑ (ns)
- Change in Porosity, Old ([1]; old mice, 20 ng/ml): ↑ (ns)
- Diameter ([1]; old mice, 20 ng/ml): 125.00 ± 13.36 nm
- Frequency ([1]; old mice, 20 ng/ml): 3.00 ± 0.66 no/area
- Porosity ([1]; old mice, 20 ng/ml): 3.98 ± 0.48 %
- Diameter ([1]; young mice, 5 ng/ml): 125.87 ± 9.30 nm
- Frequency ([1]; young mice, 5 ng/ml): 3.47 ± 1.00 no/area
- Porosity ([1]; young mice, 5 ng/ml): 4.73 ± 0.80%
- Diameter ([1]; young mice, 20 ng/ml): 123.66 ± 1.18 nm
- Frequency ([1]; young mice, 20 ng/ml): 4.67 ± 0.65 no/area
- Porosity ([1]; young mice, 20 ng/ml): 6.44 ± 1.14 %
- fenestration diameter (LSEC fenestrations; young mice, 20 ng/ml): 123.8±1.6 nm

Compound: CCCc1nn(C)c2c(=O)[nH]c(-c3cc(S(=O)(=O)N4CCN(C)CC4)ccc3OCC)nc12 [Sildenafil, sildenafil]
- actin changes with drug treatments (dSTORM) [3]: disordered, dense actin staining in the plasma membrane and clustering of actin within the cytoplasm; also recorded: Disordered actin structure; also recorded: Gap formations; also recorded: Individual fenestrations
- actin changes with drug treatments (dSTORM) ([3]; listed as sildenafil): loss of smooth fibres encircling the cytoplasm
- increase of intracellular cGMP (Intracellular cGMP): 3 fold
- Diameter ([1]; old mice, 0.3 μg/ml): 138.91 ± 13.05 nm
- Frequency ([1]; old mice, 0.3 μg/ml): 3.41 ± 0.68 no/area
- Porosity ([1]; old mice, 0.3 μg/ml): 5.49 ± 1.33 %
- Diameter ([1]; old mice, 0.6 μg/ml): 143.69 ± 10.80 nm
- Frequency ([1]; old mice, 0.6 μg/ml): 2.88 ± 01.16 no/area
- Porosity ([1]; old mice, 0.6 μg/ml): 4.97 ± 1.34 %
- effect on porosity and fenestration frequency (summary in words) [1]: significant increases in porosity and fenestration frequency in both young and old LSECs
- dose response on fenestration porosity (words) ([1]; young mice): limited dosage range for positive effects on fenestration porosity
- Diameter ([1]; young mice, 0.3 μg/ml): 126.34 ± 16.36 nm
- Frequency ([1]; young mice, 0.3 μg/ml): 4.54 ± 0.34 no/area
- Porosity ([1]; young mice, 0.3 μg/ml): 6.34 ± 2.09 %
- Diameter ([1]; young mice, 0.6 μg/ml): 130.33 ± 16.02 nm
- Frequency ([1]; young mice, 0.6 μg/ml): 3.56 ± 0.61 no/area
- Porosity ([1]; young mice, 0.6 μg/ml): 4.92 ± 0.35%
- dose response on fenestration porosity (words) ([1]; young mice, listed as sildenafil): did not promote greater changes in fenestration porosity or frequency
- fenestration numbers, fenestrated cell area and sieve plate formation ([1]; young mice, sildenafil 0.3 μg/ml, amlodipine 20 ng/ml, TRAIL 1 ng/ml): increased fenestration numbers and overall fenestrated cell area with some disruption to sieve plate formation
- fenestration porosity (LSEC fenestrations; old mice, 300 ng/ml): 5.4±1.9%
- change in fenestration diameter (LSEC fenestrations; old mice, 7KC 4.5 μM): No changes
- sieve plates and fenestration density on SEM images (LSEC fenestrations): maintained sieve plates and increased fenestration density
- fenestration porosity (LSEC fenestrations; young mice, 300 ng/ml): 7.1±2.2%
- change in fenestration diameter (LSEC fenestrations; young mice): No changes

Compound: Triton X-100
- effect on fenestrations and lipid rafts [2]: decreased fenestrations and increased rafts

Compound: COc1ccccc1Oc1c(NS(=O)(=O)c2ccc(C(C)(C)C)cc2)nc(-c2ncccn2)nc1OCCO [Bosentan, bosentan]
- actin changes with drug treatments (dSTORM) [3]: Stress fibres; also recorded: Fused actin structure; also recorded: Individual fenestrations
- Diameter ([1]; old mice, 5.5 ng/ml): 131.03 ± 16.29 nm
- Frequency ([1]; old mice, 5.5 ng/ml): 3.14 ± 0.35 no/area
- Porosity ([1]; old mice, 5.5 ng/ml): 4.53 ± 0.59 %
- Diameter ([1]; old mice, 55 ng/ml): 121.14 ± 23.80 nm
- Frequency ([1]; old mice, 55 ng/ml): 2.31 ± 1.03 no/area
- Porosity ([1]; old mice, 55 ng/ml): 3.21 ± 0.36%
- Diameter ([1]; old mice, 550 ng/ml): 118.64 ± 4.36 nm
- Frequency ([1]; old mice, 550 ng/ml): 1.46 ± 0.54 no/area
- Porosity ([1]; old mice, 550 ng/ml): 1.86 ± 0.72%
- effect on porosity and fenestration frequency (summary in words) [1]: LSECs from old mice only were responsive
- Diameter ([1]; young mice, 5.5 ng/ml): 129.55 ± 5.46 nm
- Frequency ([1]; young mice, 5.5 ng/ml): 3.66 ± 0.30 no/area
- Porosity ([1]; young mice, 5.5 ng/ml): 5.18 ± 0.45%
- Diameter ([1]; young mice, 55 ng/ml): 132.12 ± 9.03 nm
- Frequency ([1]; young mice, 55 ng/ml): 3.20 ± 1.23 no/area
- Porosity ([1]; young mice, 55 ng/ml): 4.48 ± 1.12%
- Diameter ([1]; young mice, 550 ng/ml): 133.73 ± 9.03 nm
- Frequency ([1]; young mice, 550 ng/ml): 2.30 ± 0.04 no/area
- Porosity ([1]; young mice, 550 ng/ml): 3.66 ± 0.41%
- fenestration porosity (LSEC fenestrations; old mice, 0.1 μM): 4.2±0.4%
- change in fenestration diameter (LSEC fenestrations; old mice, 7KC 4.5 μM): No changes
- sieve plates and fenestration density on SEM images (LSEC fenestrations): maintained sieve plates and increased fenestration density
- fenestration porosity (LSEC fenestrations; young mice, 0.1 μM): 5.4±0.1%
- change in fenestration diameter (LSEC fenestrations; young mice): No changes
